Measurements as given in PubChem BioAssay AID1963985 (Molecular Pharmacology Branch, DTP, NCI, 2024).

Tested on: 252836-082-R-J2-PDC tumor spheroids, viability
Assay: Anticancer human tumor 252836-082-R-J2-PDC patient-derived head and neck squamous cell carcinoma cell line growth inhibition [PI3K]
Conditions: spheroids with HUVEC and MSC; for viability, T/C: stronger effect = lower value
Method in brief: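 We assembled tumor spheroids that included a stromal compartment of HUVEC and MSCs, then exposed them to targeted agents alone and together with PI3K pathway inhibitors. Concentration series descended by half-log from clinically achievable Cmax levels. Viability served as the endpoint.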
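Also: spheroids exposed to agents for seven days before readout.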
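For viability, T/C in this document: percent of vehicle DMSO control viability so 100% = untreated growth.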

CC1(C)CCC(CN2CCN(c3ccc(C(=O)NS(=O)(=O)c4ccc(NCC5CCOCC5)c([N+](=O)[O-])c4)c(Oc4cnc5[nH]ccc5c4)c3)CC2)=C(c2ccc(Cl)cc2)C1 + CC(Nc1ccc2c(c1)OCCn1cc(N3C(=O)OCC3C(F)F)nc1-2)C(N)=O
IC50 (curve of first compound, second compound 0.00316 µM): 5.66 µM | IC50 (curve of first compound, second compound 0.01 µM): 5.49 µM | IC50 (curve of first compound, second compound 0.0316 µM): 5 µM | IC50 (curve of first compound, second compound 0.1 µM): 3.92 µM | IC50 (curve of first compound, second compound 0.316 µM): 3.46 µM | IC50 (curve of first compound, second compound 1 µM): < 0.0316 µM | viability, T/C (second compound 0.00316 µM, first compound 0.0316 µM): 95.4% | viability, T/C (second compound 0.00316 µM, first compound 0.1 µM): 81.6% | viability, T/C (second compound 0.00316 µM, first compound 0.316 µM): 93.3% | viability, T/C (second compound 0.00316 µM, first compound 1 µM): 101% | viability, T/C (second compound 0.00316 µM, first compound 3.16 µM): 99% | viability, T/C (second compound 0.00316 µM, first compound 10 µM): 6.79% | viability, T/C (second compound 0.01 µM, first compound 0.0316 µM): 98.6% | viability, T/C (second compound 0.01 µM, first compound 0.1 µM): 87% | viability, T/C (second compound 0.01 µM, first compound 0.316 µM): 90.1% | viability, T/C (second compound 0.01 µM, first compound 1 µM): 90.9% | viability, T/C (second compound 0.01 µM, first compound 3.16 µM): 84.7% | viability, T/C (second compound 0.01 µM, first compound 10 µM): 12.2% | viability, T/C (second compound 0.0316 µM, first compound 0.0316 µM): 77.6% | viability, T/C (second compound 0.0316 µM, first compound 0.1 µM): 83.8% | viability, T/C (second compound 0.0316 µM, first compound 0.316 µM): 76.5% | viability, T/C (second compound 0.0316 µM, first compound 1 µM): 68.9% | viability, T/C (second compound 0.0316 µM, first compound 3.16 µM): 90.1% | viability, T/C (second compound 0.0316 µM, first compound 10 µM): 5.56% | viability, T/C (second compound 0.1 µM, first compound 0.0316 µM): 78.7% | viability, T/C (second compound 0.1 µM, first compound 0.1 µM): 64.9% | viability, T/C (second compound 0.1 µM, first compound 0.316 µM): 66.1% | viability, T/C (second compound 0.1 µM, first compound 1 µM): 73% | viability, T/C (second compound 0.1 µM, first compound 3.16 µM): 59.8% | viability, T/C (second compound 0.1 µM, first compound 10 µM): 4.08% | viability, T/C (second compound 0.316 µM, first compound 0.0316 µM): 70.8% | viability, T/C (second compound 0.316 µM, first compound 0.1 µM): 55.3% | viability, T/C (second compound 0.316 µM, first compound 0.316 µM): 54.3% | viability, T/C (second compound 0.316 µM, first compound 1 µM): 56.4% | viability, T/C (second compound 0.316 µM, first compound 3.16 µM): 54.3% | viability, T/C (second compound 0.316 µM, first compound 10 µM): 6.25% | viability, T/C (second compound 1 µM, first compound 0.0316 µM): 47.5% | viability, T/C (second compound 1 µM, first compound 0.1 µM): 49.6% | viability, T/C (second compound 1 µM, first compound 0.316 µM): 49.7% | viability, T/C (second compound 1 µM, first compound 1 µM): 47.9% | viability, T/C (second compound 1 µM, first compound 3.16 µM): 39.7% | viability, T/C (second compound 1 µM, first compound 10 µM): 15.7%

C#Cc1c(F)ccc2cc(O)cc(-c3ncc4c(N5CC6CCC(C5)N6)nc(OCC56CCCN5CC(F)C6)nc4c3F)c12 (configuration not stated)
viability, T/C (compound 0.0316 µM): 89.5% [middle of 4 runs] | viability, T/C (compound 1 µM): 87.9% [middle of 4 runs] | viability, T/C (compound 3.16 µM): 83.4% [middle of 4 runs] | viability, T/C (compound 10 µM): 67.8% [middle of 4 runs] | IC50 (curve of compound): > 10 µM
